Laboratory results from patent US10633338B2, “Binding Function 3 (BF3) site compounds as therapeutics and methods for their use” (THE UNIVERSITY OF BRITISH COLUMBIA, priority 2014, dated 2020).
pIC50: −log10 of the molar value. Where two headings read alike, the source gives them in different places.

Tests used:
PSA = assay: Prostate Surface Antigen (PSA) assay, PSA excreted into the media; format: cell-based, human; conditions: same plates as eGFP assay
Procedure: The evaluation of PSA excreted into the media was performed in parallel to the eGFP assay using the same plates (see above description). After the cells were incubated for 3 days 150 μl of the media was taken from each well, and added to 150 μl of PBS.

androgen receptor (AR) = biological target: T1, androgen receptor (AR) (Homo sapiens, UniProt P10275, T878A); assay: eGFP cellular AR transcription assay; format: cell-based
T1 construct: stably transfected eGFP-expressing LNCaP human prostate cancer cells (LN-ARR2PB-eGFP) containing an androgen responsive probasin-derived promoter; endogenous in cells; host or cells: LNCaP (LN-ARR2PB-eGFP)
T1 sequence (P10275 1-920 T878A): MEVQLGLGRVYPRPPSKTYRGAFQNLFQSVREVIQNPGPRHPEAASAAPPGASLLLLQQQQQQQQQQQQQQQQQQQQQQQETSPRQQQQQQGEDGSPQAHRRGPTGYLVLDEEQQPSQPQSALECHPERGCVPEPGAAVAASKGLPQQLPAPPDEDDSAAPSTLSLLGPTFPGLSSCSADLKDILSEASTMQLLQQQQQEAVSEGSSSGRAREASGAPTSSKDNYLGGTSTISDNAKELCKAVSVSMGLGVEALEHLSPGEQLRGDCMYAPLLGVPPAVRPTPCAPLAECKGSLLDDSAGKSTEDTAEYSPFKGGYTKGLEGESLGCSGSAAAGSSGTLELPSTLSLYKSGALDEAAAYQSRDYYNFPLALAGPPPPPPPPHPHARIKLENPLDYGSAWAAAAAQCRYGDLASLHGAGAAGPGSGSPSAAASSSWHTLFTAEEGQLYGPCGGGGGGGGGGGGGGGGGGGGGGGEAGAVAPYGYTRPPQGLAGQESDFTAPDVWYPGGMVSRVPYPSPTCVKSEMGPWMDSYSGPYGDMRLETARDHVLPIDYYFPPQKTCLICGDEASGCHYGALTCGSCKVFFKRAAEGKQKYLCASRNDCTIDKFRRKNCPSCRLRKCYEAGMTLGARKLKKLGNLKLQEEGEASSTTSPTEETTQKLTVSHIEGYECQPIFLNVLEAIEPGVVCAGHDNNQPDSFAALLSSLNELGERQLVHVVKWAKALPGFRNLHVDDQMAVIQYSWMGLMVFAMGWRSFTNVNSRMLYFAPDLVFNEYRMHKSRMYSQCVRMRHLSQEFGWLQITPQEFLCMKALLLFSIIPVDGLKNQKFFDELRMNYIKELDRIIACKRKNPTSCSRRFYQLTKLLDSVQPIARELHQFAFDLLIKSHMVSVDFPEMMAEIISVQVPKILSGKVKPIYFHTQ
Procedure: After 5 days, the cells were plated into a 96-well plate (35,000 cells/well) with 0.1 nM of the synthetic androgen R1881 and increasing concentrations (0-100 μM) of compound.
After 5 days, the cells were plated into a 96-well plate (35,000 cells/well) with 0.1 nM R1881 and increasing concentrations (0-100 μM) of compound.
In this assay, the expression of eGFP is under the control of an androgen responsive probasin-derived promoter and can quantify AR transcriptional activity.

[1] = Homo sapiens, 72 h, PSA excreted into media, 3 days incubation, read-out: PSA IC50
[2] = LN-ARR2PBeGFP LNCaP cells, 0.1 nM R1881, 3 days incubation, read-out: eGFP IC50
[3] = Homo sapiens, 72 h, media after 3 days, read-out: IC50 (PSA)
[4] = LN-ARR2PB-eGFP LNCaP cells, 0.1 nM R1881, 3 days, 0-100 μM compound, read-out: IC50 (eGFP)
[5] = PSA excreted into media, 3 days incubation
[6] = LN-ARR2PBeGFP LNCaP cells, 0.1 nM R1881, 3 days incubation

SMILES	pIC50 (PSA; [1])	pIC50 (androgen receptor (AR); [2])	PSA IC50 (PSA; [5])	eGFP IC50 (androgen receptor (AR); [6])	further results
Fc1ccc2ccc(-c3c[nH]c4c(F)c(F)c(F)cc34)nc2c1 [Compound 13772]	6.76	6.70	–	–	–
c1ccc2c(c1)C[C@H](c1c[nH]c3ccccc13)N2 [Compound 13163-B]	6.62	6.32	–	–	–
c1ccc(-c2ccc(-c3c[nH]c4cccnc34)cc2)cc1 [13 735]	–	–	–	–	pIC50 (PSA; [3]): 5.84; pIC50 (androgen receptor (AR); [4]): 5.41
N#Cc1cc(F)cc2c(-c3ccc4ccc(F)cc4n3)c[nH]c12 [Compound 13730]	6.70	6.83	–	–	–
Fc1ccc2nc(-c3c[nH]c4c(F)c(F)c(F)cc34)ccc2c1 [Compound 13749]	6.66	6.54	–	–	–
Cc1ccc2ccc(-c3c[nH]c4c(C)c(F)ccc34)nc2c1 [Compound 13660]	5.72	5.60	–	–	–
CC1(C)c2ccccc2NC1c1c[nH]c2ncccc12 (stereo not shown) [Compound 13560]	–	5.64	–	–	pIC50 (PSA; PSA excreted into media, 3 days incubation, read-out: PSA IC50): 5.12
Brc1cccc2c(-c3cnc4ccccc4c3)c[nH]c12 [Compound 13653]	6.54	5.95	–	–	–
Cc1[nH]c2ccccc2c1SCc1ccccc1F [Compound 13411]	5.62	5.62	–	–	–
Fc1cc(F)c2[nH]cc(-c3ccc4c(Cl)cccc4n3)c2c1 [Compound 13672]	–	–	Inactive	Inactive	–
O=[N+]([O-])c1cccc2nc(-c3c[nH]c4c(Cl)cccc34)ccc12 [Compound 13711]	–	–	Inactive	Inactive	–
Cc1cc(F)cc2c(-c3ccc4ccc(F)cc4n3)n[nH]c12 [Compound 13704]	6.77	6.46	–	–	–
Clc1cccc2nc(-c3c[nH]c4ccccc34)ccc12 [Compound 13706]	–	–	Inactive	Inactive	–
Fc1cc(Cl)c2[nH]cc(-c3ccc4c(Cl)cccc4n3)c2c1 [Compound 13669]	–	–	Inactive	Inactive	–
Cc1ccc(Cl)c2c(-c3ccc4ccccc4n3)c[nH]c12 [Compound 13681]	5.77	5.60	–	–	–
CC1(C)c2ccccc2NC1C1CN(CCO)c2ccccc21 (stereo not shown) [Compound 13508]	5.57	5.32	–	–	–
c1ccc(-c2cccc(-c3c[nH]c4ncccc34)c2)cc1 [13 734]	–	–	–	–	pIC50 (PSA; [3]): 5.38; pIC50 (androgen receptor (AR); [4]): 4.96
Fc1ccc2cc[nH]c2c1Cl [Compound 13725]	–	–	Inactive	Inactive	–
Fc1ccc2nc(-c3c[nH]c4cc(F)c(F)cc34)ccc2c1 [Compound 13614]	6.22	5.95	–	–	–
Fc1cc(F)c2[nH]cc(-c3ccc4c(F)cccc4n3)c2c1 [Compound 13671]	–	–	Inactive	Inactive	–
Cn1cc(-c2cc3ccccc3n2C)c2ccccc21 [Compound 13166]	5.67	5.80	–	–	–
COc1ccc(/N=C/c2c[nH]c3ccccc23)cc1 [Compound 13300]	5.17	5.03	–	–	–
Cc1ccc(CN(C(=O)c2cc3ccccc3[nH]2)C(C)C)o1 [Compound 9128]	5.46	5.49	–	–	–
FC(F)(F)c1ccc(-c2c[nH]c3ccccc23)nc1 [13 741]	–	–	–	–	pIC50 (PSA; [3]): 6.54; pIC50 (androgen receptor (AR); [4]): 6.54
Cc1cccc2c(-c3ccc4c(Cl)cccc4n3)c[nH]c12 [Compound 13605]	–	–	Inactive	Inactive	–
Fc1cc(F)c2[nH]cc(-c3ccc4cccc(F)c4n3)c2c1 [Compound 13695]	7.06	7.16	–	–	–
Fc1ccc2c(-c3ccc4ccccc4n3)c[nH]c2c1 [Compound 13576]	7.32	6.84	–	–	–
Fc1cc(Cl)cc2cc[nH]c12 [Compound 13720]	–	–	Inactive	Inactive	–

SMILES	pIC50 (PSA; [1])	pIC50 (androgen receptor (AR); [2])	PSA IC50 (PSA; [5])	eGFP IC50 (androgen receptor (AR); [6])	further results
Cc1cc(F)cc2c(-c3ccc4c(Cl)cccc4n3)c[nH]c12 [Compound 13709]	–	–	Inactive	Inactive	–
CCOC(=O)CN1c2ccccc2C(C)(C)C1c1c[nH]c2ccccc12 (stereo not shown) [Compound 13532]	5.51	5.55	–	–	–
Cc1ccc2[nH]cc(C3Nc4ccccc4C34CCCCC4)c2c1 (stereo not shown) [Compound 13548]	5.37	5.49	–	–	–
Fc1ccc(Cl)c2[nH]ccc12 [Compound 13726]	–	–	Inactive	Inactive	–
Fc1ccc2nc(-c3c[nH]c4c(F)c(F)c(F)cc34)cnc2c1 [Compound 13762]	6.37	6.32	–	–	–
COc1ccc(Br)cc1-c1c[nH]c2ccccc12 [Compound 13638]	–	–	Inactive	Inactive	–
Cc1cccc2c(-c3ccc4ncsc4c3)c[nH]c12 [Compound 13757]	–	–	Inactive	Inactive	–
CN1c2ccccc2C[C@H]1c1c[nH]c2ccccc12 [Compound 13164-A]	6.17	6.11	–	–	–
Oc1cc2ccccc2cc1-c1nc2ccccc2[nH]1 [13 687]	–	–	–	–	IC50 (PSA) (PSA; media after 3 days): IC50 (PSA) = Inactive; IC50 (eGFP) (androgen receptor (AR); LN-ARR2PB-eGFP LNCaP cells, 0.1 nM R1881, 3 days, 0-100 μM compound): IC50 (eGFP) = Inactive
c1ccc2nc(-c3c[nH]c4cnccc34)ccc2c1 [13 583]	–	–	–	–	pIC50 (PSA; [3]): 6.03; pIC50 (androgen receptor (AR); [4]): 5.96
Fc1cccc2c(-c3ccc4cccc(Cl)c4n3)c[nH]c12 [Compound 13698]	7.39	7.39	–	–	–
Cc1cccc2c(-c3ccc4c(O)cccc4n3)c[nH]c12 [Compound 13620]	–	–	Inactive	Inactive	–
Fc1cccc2ccc(Cl)nc12 [Compound 13729]	–	–	Inactive	Inactive	–
O=[N+]([O-])c1cccc2c(-c3ccc(Br)cc3)c[nH]c12 [13 738]	–	–	–	–	pIC50 (PSA; [3]): 7.21; pIC50 (androgen receptor (AR); [4]): 7.08
Cc1cccc2c(-c3ccc4c([N+](=O)[O-])cccc4n3)c[nH]c12 [Compound 13632]	–	–	Inactive	Inactive	–
c1ccc2ncc(-c3n[nH]c4ccccc34)cc2c1 [Compound 13684]	5.18	5.85	–	–	–
Cc1c(F)ccc2c(-c3ccc4cccc(Cl)c4n3)c[nH]c12 [Compound 13665]	6.68	6.57	–	–	–
c1ccc2c(c1)NC(c1c[nH]c3ccccc13)C21CCCCC1 (stereo not shown) [13 534]	–	–	–	–	pIC50 (PSA; [3]): 5.90; pIC50 (androgen receptor (AR); [4]): 6.10
Cc1cccc2c(-c3nc(Br)cs3)c[nH]c12 [Compound 13766]	7.70	7.35	–	–	pIC50 (PSA; [3]): 7.70; pIC50 (androgen receptor (AR); [4]): 7.35
Brc1ccc2[nH]cc(-c3ccc4ccccc4n3)c2c1 [13 683]	–	–	–	–	pIC50 (PSA; [3]): 5.72; pIC50 (androgen receptor (AR); [4]): 5.59
Cc1cccc2c(-c3cnc4cccnc4c3)c[nH]c12 [Compound 13662]	–	–	Inactive	Inactive	–
Cc1c(F)ccc2c(-c3ccc4ccc(F)cc4n3)c[nH]c12 [Compound 13646]	6.65	6.75	–	–	–
Fc1cc2[nH]cc(-c3ccc4c(F)cccc4n3)c2cc1F [Compound 13693]	6.92	6.96	–	–	–
c1ccc2cc(-c3c[nH]c4cnccc34)ccc2c1 [13 675]	–	–	–	–	pIC50 (PSA; media after 3 days, read-out: IC50 (PSA)): 6.33; pIC50 (androgen receptor (AR); [4]): 6.35
O=C(O)c1cccc2nc(-c3c[nH]c4c(Cl)cc(F)cc34)ccc12 [Compound 13673]	–	–	Inactive	Inactive	–
Fc1cc2c(-c3ccc4cccc(Cl)c4n3)c[nH]c2c(F)c1F [Compound 13773]	6.52	6.52	–	–	–
c1ccc2ncc(-c3n[nH]c4ccccc34)cc2c1 [13 684]	–	–	–	–	pIC50 (PSA; [3]): 5.18; pIC50 (androgen receptor (AR); [4]): 5.85
